The term IC50 denotes the concentration needed to halve the response being measured.

This is an account of results in ChEMBL document CHEMBL1134578, “X-Ray crystal structures of Candida albicans dihydrofolate reductase: high resolution ternary complexes in which the dihydronicotinamide moiety of NADPH is displaced by an inhibitor” (J Med Chem, 2001).

A short description of assay [1]: Selective ratio of Human / Candida albicans was determined.
Assay [2] deals with T1, Dihydrofolate reductase (Homo sapiens, UniProt P00374).
T1 sequence (P00374 whole entry): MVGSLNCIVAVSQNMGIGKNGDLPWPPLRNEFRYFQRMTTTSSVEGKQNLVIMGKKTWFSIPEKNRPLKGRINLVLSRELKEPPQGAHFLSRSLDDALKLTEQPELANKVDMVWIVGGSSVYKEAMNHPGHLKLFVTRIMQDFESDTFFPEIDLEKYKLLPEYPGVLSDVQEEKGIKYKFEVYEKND
As to the kind of experiment: Inhibitory activity against recombinant human dihydrofolate reductase.

Assay [3] has as its target T2, Dihydrofolate reductase (Candida albicans, UniProt P22906).
T2 sequence (P22906 whole entry): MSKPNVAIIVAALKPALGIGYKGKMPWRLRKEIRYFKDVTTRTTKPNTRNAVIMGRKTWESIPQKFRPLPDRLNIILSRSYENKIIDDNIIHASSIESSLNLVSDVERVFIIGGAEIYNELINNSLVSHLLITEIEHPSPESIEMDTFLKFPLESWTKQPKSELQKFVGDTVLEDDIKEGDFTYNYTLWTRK
Put plainly: Inhibitory activity against Candida albicans Dihydrofolate Reductase (DHFR).

`CCC(CC)n1ccc2c3c(N)nc(N)nc3ccc21`: in assay [1], the SI was 1.7. Besides, the results for the IC50 on Dihydrofolate reductase [2] and against Dihydrofolate reductase [3] were 6.6 nM and 4 nM, respectively.
